# From patent US20060182763A1, “CD8 T cell epitopes in HPV 16 E6 and E7 proteins and uses thereof” (priority 2005, published 2006)
# Where “and” joins values, the source holds several entries; their conditions need not be identical. Equal entries are not always repeated. Entries after “also recorded” stand apart in the source; their conditions may differ. Where no end group is shown, it is not given here.
# How the values were obtained:
# Format in all cases: cell-based, human
# T cell clones [1] = assay: ELISPOT with E6-vac/E7-vac-infected autologous EBV-LCL (naturally processed epitope)
# T cell clones [2] = assay: IFN-γ ELISPOT of T cell clones with peptides and autologous EBV-LCL; details: for ELISPOT response of T cell clones: subject 5 clones #1-5 and #17-5; for ELISPOT response (spot-forming units) of T cell clones: subject 15 clones specific for E6 26-40, peptides 10 μM; for ELISPOT response of 27G6 clone: subject 1, E7-specific clone; for T cell clones positive in screening ELISPOT: 94 out of 400 clones screened; for retest of screen-positive T cell clones (ELISPOT): 1000 T cell clone cells in duplicate; for ELISPOT response (spot forming units) of T cell clones: 10 μM
# Protocol: A method described previously was used with some modifications (Larsson, M. et al., 2002). Briefly, a 96-well plate (Millititer, Millipore, Bedford, Mass.) was coated with 5μg/ml primary anti-γ-IFN monoclonal antibody (Mabtech, Stockholm, Sweden) and stored at 4° C. overnight. The plate was then washed 4 times with phosphate buffered saline (PBS) and blocked using RPMI 1640 plus 5% pooled human serum for 1 h at 37° C.
# To examine the pattern of CD8 T cell epitopes (FIG. 1), 1×10^5cells of a CD8 T cell line were plated in each well. Overlapping 15-mer peptides (overlapping by the 10 central amino acids) were pooled to 10 groups (each group containing 3 peptides) and tested in duplicate (10 μM for each peptide) along with no peptide control. For screening T cell clones, 50 μl of culture media containing the T cell clones was added with 1×10^5 autologous Epstein-Barr virus-transformed B lymphoblastoid cell line (EBV-LCL) cells (data not shown). With the remaining experiments using T cell clones, 1×10^3 T cell clones were plated along with 1×10^5EBV-LCL cells to reduce the number of T cell clones necessary for analysis. All peptides were used at a concentration of 10 μM.
# Autologous EBV-LCL cells were incubated with E6-vac, E7-vac or WR at the multiplicity of infection of 10 for 1 h at 37° C. prior to being plated (FIG. 2B). Phytohemagglutinin (PHA) at 10 μg/ml was added as positive control. After a 24 h incubation at 37° C., the plate was washed 4 times with PS plus 0.05% Tween-20. A total of 50 μl of secondary antibody (1 μg/ml biotin-conjugated anti-IFNγ monoclonal antibody; Mabtech) was added and the plate was incubated for 2 h at 37° C. The plate was then washed 4 times with PBS plus 0.1% Tween-20. Avidin-bound biotinylated horseradish peroxidase H (Vectastain Elite kit; Vector laboratories, Inc., Burligame, Calif.) was added […] and air-dried overnight. Spot forming units were counted using an automated ELISPOT analyzer (Cell Technology, Inc., Jessup, Md.) and were normalized to number of spot forming units per 1×10^6 cells for CD8 T cell lines. Response was considered positive when the number of spot forming units in wells with peptide pools was at least double that seen in the no peptide control wells.
# To isolate T cell clones recognizing the E6 antigenic epitope from subject 15, their CD8 T cell lines were stimulated as described above for two additional 7-day cycles, so the frequency of targeted T cell clones would be above the threshold of selection (≧0.1%). The peptide-specific T cells were positively selected using the IFN-γ secretion assay enrichment kit, according to the manufacturer's instructions (Miltenyi Biotec), after stimulating cells with 10 μM each of peptides contained in the E6 16-40 (SEQ ID NO. 36) pool. Selected cells were plated at a concentration of 0.5 cells per well in the presence of a 0.5× feeder cell mixture (Yssel's media containing 1% pooled human serum, penicillin G 100 units/ml, streptomycin 100 μg/ml, 5×10^5/ml irradiated allogenic PBMC, 5×10^4/ml irradiated JY cells, 0.1 μg/ml PHA, with/without 10 u/ml rIL-4). Control wells for growth contained 1 to 1000 cells per well. On day 5, 100 μl of Yssel's media containing 20 U/ml of rIL-2 was added to each well. Growing microcultures were transferred to 24-well plates containing 1 ml of 1× feeder cell mixture per well (Yssel's media containing 1% pooled human serum, penicillin G 100 units/ml, streptomycin 100 μg/ml, 1×10^6/ml irradiated allogenic PBMC, 1×10^5/ml irradiated JY cells and 0.1 μg/ml PHA).
# All peptides were used at a concentration of […] and 1×10^3 T cell clones along with 1×10^5 autologous LCL cells were plated to each well.
# CD8 T cell line = assay: IFN-γ ELISPOT of CD8 T cell lines with pooled overlapping 15-mer peptides; design: key to CD8 T cell response to HPV 16 E6 region: The strongest T cell response for a given subject is indicated with upper case X; x: subdominant response is indicated with lower case X; details: pooled 15-mer peptides, 10 μM each
# [3] = subject 20, E6 16-40 region (eight clones), E6 31-55 region (four clones)
# [4] = subject 20 clones #60-20, #127-20, #138-20
substance,measurement,setting,value
"E6 141-155: HPV16 E6 15-mer peptide, residues 141-155 (GRCMSCCRSSRTRRE; Human Papilloma Virus 16; CHAIN residues 141-155 of the E6 protein)",recognition of E6-vac infected autologous LCL / natural processing,T cell clones [1]; subject 5 clones #1-5 and #17-5,not with E6-vac infected autologous LCL; also recorded: not the E6-vac infected ones
same,screen-positive T cell clones positive for the 15-mer peptide on retest,T cell clones [2]; subject 5,Two
same,ELISPOT response of T cell clones,T cell clones [2],confirmed
TTIHDIILEC (Human Papilloma Virus 16; CHAIN residues 28-37 of the E6 protein) [E6 28-37],ELISPOT response (spot-forming units) of T cell clones,T cell clones [2],similar
E6 136-158: pool of overlapping 15-mers covering HPV16 E6 136-158 (RGRWTGRCMSCCRSSRYRRETQK; cysteine pairing not given here; also: pool of overlapping 15-mers),CD8 T cell response to HPV 16 E6 region,CD8 T cell line; Subject 5,x
EDLLMGTL (Human Papilloma Virus 16; CHAIN residues 80-87 of the E7 protein) [E7 80-87],ELISPOT response of 27G6 clone,T cell clones [2],smaller response; also recorded: partial IFN-γ secretion
LQTTIHDIILECVYC (Human Papilloma Virus 16; CHAIN residues 26-40 of the E6 protein) [E6 26-40],screen-positive T cell clones positive for the 15-mer peptide on retest,T cell clones [2]; subject 5,none of 5
same,screen-positive T cell clones positive for the 15-mer peptide on retest,"T cell clones [2]; subject 7, of 10 (E6 16-40 region) or six (E6 46-70 region) clones",10 clones
same,T cell clones positive in screening ELISPOT,T cell clones [2]; subject 15,Thirteen
same,retest of screen-positive T cell clones (ELISPOT),T cell clones [2]; subject 15,confirming their specificity
same,retest of screen-positive T cell clones (ELISPOT),"T cell clones [2]; subject 15, listed as E6 24-60",confirmed
same,screen-positive T cell clones positive for the 15-mer peptide on retest,"T cell clones [2]; subject 15, of 14 clones positive for E6 16-40 region",10 clones
same,ELISPOT response (spot-forming units) of T cell clones,T cell clones [2],similar
same,screen-positive T cell clones positive for the 15-mer peptide on retest,T cell clones [2]; [3],eight
HDIILECVYCKQQLL (Human Papilloma Virus 16; CHAIN residues 31-45 of the E6 protein) [E6 31-45],screen-positive T cell clones positive for the 15-mer peptide on retest,T cell clones [2]; [3],four
IHDIILEC (Human Papilloma Virus 16; CHAIN residues 30-37 of the E6 protein) [E6 30-37],ELISPOT response (spot forming units) of T cell clones,T cell clones [2]; [4],Less number of spot forming units
"E6 31-39: HPV16 E6 9-mer peptide, residues 31-39 (HDIILECVY; Human Papilloma Virus 16; CHAIN residues 31-39 of the E6 protein)",ELISPOT response (spot forming units) of T cell clones,T cell clones [2]; [4],positive; also recorded: similar; also recorded: large numbers of spot forming units
E6 91-115: pool of three overlapping 15-mers covering HPV16 E6 91-115 (YGTTLEQQYNKPLCDLLIRCINCQK; cysteine pairing not given here; also: pool of overlapping 15-mers),CD8 T cell response to HPV 16 E6 region,CD8 T cell line; Subject 18,X
"E6 32-38: HPV16 E6 7-mer, residues 32-38 (DIILECV; Human Papilloma Virus 16; CHAIN residues 32-38 of the E6 protein)",ELISPOT response (spot forming units) of T cell clones,T cell clones [2]; [4],Less number of spot forming units
LEDLLMGT (Human Papilloma Virus 16; CHAIN residues 79-86 of the E7 protein) [E7 79-86],ELISPOT response of 27G6 clone,T cell clones [2],smaller response; also recorded: did not show any activity above the background
E6 61-85: pool of three overlapping 15-mers covering HPV16 E6 61-85 (YRDGNPYAVCDKCLKFYSKISEYRH; cysteine pairing not given here; also: pool of overlapping 15-mers),CD8 T cell response to HPV 16 E6 region,CD8 T cell line; Subject 18,x
same,CD8 T cell response to HPV 16 E6 region,CD8 T cell line; Subject 23,x
"E6 143-153: HPV16 E6 11-mer, residues 143-153 (CMSCCRSSRTR; Human Papilloma Virus 16; CHAIN residues 143-153 of the E6 protein)",ELISPOT response of T cell clones,T cell clones [2],None of the 9-mers and the 11-mers was positive
QLCTELQTTIHDIIL (QLCTELETTIHDIIL; Human Papilloma Virus 16; CHAIN residues 21-35 of the E6 protein) [E6 21-35],T cell clones positive in screening ELISPOT,T cell clones [2]; subject 15,three
same,retest of screen-positive T cell clones (ELISPOT),T cell clones [2]; subject 15,negative; also recorded: false positives
DFAFRDLCIVY (Human Papilloma Virus 16; CHAIN residues 51-61 of the E6 protein) [E6 51-61],ELISPOT response (spot forming units) of T cell clones,"T cell clones [2]; subject 7 subdominant epitope, clones #15-7, #41-7, #54-7, #86-7",more number of spot forming units
"E6 16-40: pool of three 15-mers: E6 16-30, E6 21-35, E6 26-40 (chain 1 PRKLPQLCTELQTTI; chain 2 QLCTELETTIHDIIL; chain 3 LQTTIHDIILECVYC; cysteine pairing not given here; also: pool of three 15-mers)",CD8 T cell response to HPV 16 E6 region,CD8 T cell line; Subject 5,X
same,CD8 T cell response to HPV 16 E6 region,CD8 T cell line; Subject 7,X
same,CD8 T cell response to HPV 16 E6 region,CD8 T cell line; Subject 15,X
same,CD8 T cell response to HPV 16 E6 region,CD8 T cell line; Subject 20,X
same,T cell clones positive with E6-vac infected autologous LCL,"T cell clones [1]; subject 7, MOI 5",20 of 20 and all twenty
same,T cell clones positive with E6-vac infected autologous LCL,"T cell clones [1]; subject 15, MOI 10",10 of 14 and 10 of the 14
same,T cell clones positive with E6-vac infected autologous LCL,"T cell clones [1]; subject 20, MOI 5",all eight
same,T cell clones positive with E6-vac infected autologous LCL,"T cell clones [1]; subject 20, MOI 5, listed as SEQ ID NO. 36",eight of eight
PRKLPQLCTELQTTI (Human Papilloma Virus 16; CHAIN residues 16-30 of the E6 protein) [E6 16-30],T cell clones positive in screening ELISPOT,T cell clones [2]; subject 15,one
same,retest of screen-positive T cell clones (ELISPOT),T cell clones [2]; subject 15,negative; also recorded: false positives
"E6 142-152: HPV16 E6 11-mer, residues 142-152 (RCMSCCRSSRT; Human Papilloma Virus 16; CHAIN residues 142-152 of the E6 protein)",ELISPOT response of T cell clones,T cell clones [2],None of the 9-mers and the 11-mers was positive
AFRDLCIVY (Human Papilloma Virus 16; CHAIN residues 53-61 of the E6 protein) [E6 53-61],ELISPOT response of E6-specific T cell clones,"T cell clones [2]; subject 1 clones 2, 9 and 69",response
"E6 30-38: HPV16 E6 9-mer peptide, residues 30-38 (IHDIILECV; Human Papilloma Virus 16; CHAIN residues 30-38 of the E6 protein)",ELISPOT response (spot forming units) of T cell clones,"T cell clones [2]; subject 7 dominant epitope, clones #12-7, #40-7, #59-7",positive
same,ELISPOT response (spot forming units) of T cell clones,T cell clones [2]; [4],positive; also recorded: similar; also recorded: large numbers of spot forming units
"E6 31-37: HPV16 E6 7-mer, residues 31-37 (HDIILEC; Human Papilloma Virus 16; CHAIN residues 31-37 of the E6 protein)",ELISPOT response (spot forming units) of T cell clones,T cell clones [2]; [4],Less number of spot forming units
"E6 144-154: HPV16 E6 11-mer, residues 144-154 (MSCCRSSRTRR; Human Papilloma Virus 16; CHAIN residues 144-154 of the E6 protein)",ELISPOT response of T cell clones,T cell clones [2],None of the 9-mers and the 11-mers was positive
